{
  "source": "patent US9113629B2",
  "about": "“4-amino-6-(4-substituted-phenyl)-picolinates and 6-amino-2-(4-substituted-phenyl)-pyrimidine-4-carboxylates and their use as herbicides” (DOW AGROSCIENCES LLC, priority 2013, dated 2015)",
  "key": {"[1]": {"test_system": "Key Broadleaf Weed and Crop Species", "assay": "Post-emergent Test II herbicidal activity (Table 5)", "assay_type": "in vivo", "details": "post-emergence, 336 h, post-emergent, 14 days after application; for pest or weed control at 70 g/ha: 70 g ai/ha; for pest or weed control at 140 g/ha: 140 g ai/ha", "method_in_brief": "(§1)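 Greenhouse-grown plants at first or second true leaf stage were sprayed post-emergence with compound in acetone/DMSO-based aqueous spray containing crop oil concentrate and surfactant, at 187 L/ha, highest rate plus ½× to 1/16× dilutions. After 14 d, injury was scored visually versus untreated plants, 0 (none) to 100% (complete kill).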"}, "[2]": {"test_system": "Key Grass and Sedge Weeds as well as Grass Crops", "assay": "Post-emergent Test II herbicidal activity (Table 6)", "assay_type": "in vivo", "details": "post-emergence, 336 h; for pest or weed control at 70 g/ha: application rate 70 g ai/ha; for pest or weed control at 140 g/ha: application rate 140 g ai/ha", "method_in_brief": "as §1"}, "[3]": {"details": "ABUTH: velvetleaf (Abutilon theophrasti), read-out: Visual Growth Reduction (%) 14 Days After Application ABUTH"}, "[4]": {"details": "AMARE: redroot pigweed (Amaranthus retroflexus), read-out: Visual Growth Reduction (%) 14 Days After Application AMARE"}, "[5]": {"details": "BRSNN: oilseed-rape, canola (Brassica napus), read-out: Visual Growth Reduction (%) 14 Days After Application BRSNN"}, "[6]": {"details": "CHEAL: lambsquarters (Chenopodium album), read-out: Visual Growth Reduction (%) 14 Days After Application CHEAL"}, "[7]": {"details": "EPHHL: wild poinsettia (Euphorbia heterophylla), read-out: Visual Growth Reduction (%) 14 Days After Application EPHHL"}, "[8]": {"details": "HELAN: sunflower (Helianthus annuus), read-out: Visual Growth Reduction (%) 14 Days After Application HELAN"}, "[9]": {"details": "VIOTR: wild pansy (Viola tricolor), read-out: Visual Growth Reduction (%) 14 Days After Application VIOTR"}, "[10]": {"details": "Triticum aestivum, TRZSS (wheat), read-out: Visual Growth Reduction (%) 14 Days After Application, TRZSS"}, "[11]": {"details": "CYPES: yellow nutsedge (Cyperus esculentus), read-out: Visual Growth Reduction (%) 14 Days After Application, CYPES"}, "[12]": {"details": "DIGSA: crabgrass (Digitaria sanguinalis), read-out: Visual Growth Reduction (%) 14 Days After Application, DIGSA"}, "[13]": {"details": "ECHCG: barnyardgrass (Echinochloa crus-galli), read-out: Visual Growth Reduction (%) 14 Days After Application, ECHCG"}, "[14]": {"details": "ORYSA: rice (Oryza sativa), read-out: Visual Growth Reduction (%) 14 Days After Application, ORYSA"}, "[15]": {"details": "SETFA: giant foxtail (Setaria faberi), read-out: Visual Growth Reduction (%) 14 Days After Application, SETFA"}, "[16]": {"details": "SORVU: grain sorghum (Sorghum vulgare), read-out: Visual Growth Reduction (%) 14 Days After Application, SORVU"}, "[17]": {"details": "ZEAMX: maize, corn (Zea mays), read-out: Visual Growth Reduction (%) 14 Days After Application, ZEAMX"}},
  "note": "Read-outs that look alike come from different tables or passages of the source.",
  "data": [
    {"compound": "C=Cc1c(C(=O)O)nc(-c2ccc(I)cc2)c(F)c1N", "note": "[Compound 17]", "values": [
      {"measurement": "pest or weed control at 70 g/ha", "setting": "[1]; [3]", "result": "95 to 100", "unit": "%"},
      {"measurement": "pest or weed control at 140 g/ha", "setting": "[1]; [3]", "result": "95 to 100", "unit": "%"},
      {"measurement": "pest or weed control at 70 g/ha", "setting": "[1]; [4]", "result": "95 to 100", "unit": "%"},
      {"measurement": "pest or weed control at 140 g/ha", "setting": "[1]; [4]", "result": "95 to 100", "unit": "%"},
      {"measurement": "pest or weed control at 70 g/ha", "setting": "[1]; [5]", "result": "95 to 100", "unit": "%"},
      {"measurement": "pest or weed control at 140 g/ha", "setting": "[1]; [5]", "result": "95 to 100", "unit": "%"},
      {"measurement": "pest or weed control at 70 g/ha", "setting": "[1]; [6]", "result": "85 to 94", "unit": "%"},
      {"measurement": "pest or weed control at 140 g/ha", "setting": "[1]; [6]", "result": "95 to 100", "unit": "%"},
      {"measurement": "pest or weed control at 70 g/ha", "setting": "[1]; [7]", "result": "95 to 100", "unit": "%"},
      {"measurement": "pest or weed control at 140 g/ha", "setting": "[1]; [7]", "result": "95 to 100", "unit": "%"},
      {"measurement": "pest or weed control at 70 g/ha", "setting": "[1]; [8]", "result": "85 to 94", "unit": "%"},
      {"measurement": "pest or weed control at 140 g/ha", "setting": "[1]; [8]", "result": "95 to 100", "unit": "%"},
      {"measurement": "pest or weed control at 70 g/ha", "setting": "[1]; [9]", "result": "0 to 29", "unit": "%"},
      {"measurement": "pest or weed control at 140 g/ha", "setting": "[1]; [9]", "result": "0 to 29", "unit": "%"},
      {"measurement": "pest or weed control at 70 g/ha", "setting": "[2]; [10]", "result": "30 to 44", "unit": "%"},
      {"measurement": "pest or weed control at 140 g/ha", "setting": "[2]; [10]", "result": "45 to 59", "unit": "%"},
      {"measurement": "pest or weed control at 70 g/ha", "setting": "[2]; [11]", "result": "95 to 100", "unit": "%"},
      {"measurement": "pest or weed control at 140 g/ha", "setting": "[2]; [11]", "result": "95 to 100", "unit": "%"},
      {"measurement": "pest or weed control at 70 g/ha", "setting": "[2]; [12]", "result": "0 to 29", "unit": "%"},
      {"measurement": "pest or weed control at 140 g/ha", "setting": "[2]; [12]", "result": "0 to 29", "unit": "%"},
      {"measurement": "pest or weed control at 70 g/ha", "setting": "[2]; [13]", "result": "75 to 84", "unit": "%"},
      {"measurement": "pest or weed control at 140 g/ha", "setting": "[2]; [13]", "result": "85 to 94", "unit": "%"},
      {"measurement": "pest or weed control at 70 g/ha", "setting": "[2]; [14]", "result": "60 to 74", "unit": "%"},
      {"measurement": "pest or weed control at 140 g/ha", "setting": "[2]; [14]", "result": "85 to 94", "unit": "%"},
      {"measurement": "pest or weed control at 70 g/ha", "setting": "[2]; [15]", "result": "0 to 29", "unit": "%"},
      {"measurement": "pest or weed control at 140 g/ha", "setting": "[2]; [15]", "result": "45 to 59", "unit": "%"},
      {"measurement": "pest or weed control at 70 g/ha", "setting": "[2]; [16]", "result": "85 to 94", "unit": "%"},
      {"measurement": "pest or weed control at 140 g/ha", "setting": "[2]; [16]", "result": "95 to 100", "unit": "%"},
      {"measurement": "pest or weed control at 70 g/ha", "setting": "[2]; [17]", "result": "60 to 74", "unit": "%"},
      {"measurement": "pest or weed control at 140 g/ha", "setting": "[2]; [17]", "result": "75 to 84", "unit": "%"}
    ]}
  ]
}
